Measured values taken from US20200317660A1, “Quinazolinone Compound and Application Thereof” (LUOXIN PHARMACEUTICAL (SHANGHAI) CO., LTD., priority 2017, published 2020).
Like-named read-outs stand apart in the source and are kept apart here.

Columns and labels:
PI3Kγ = biological target: T1, PI3Kγ (Homo sapiens, UniProt P48736); experiment: In vitro test of enzyme activity (ADP-Glo lipokinase), PI3K gamma; format: biochemical; details: 25 μM ATP, 50 μM PIP2:3PS, 120 min
T1 construct: purchased Millipore 14-558-K
T1 sequence (P48736 whole entry): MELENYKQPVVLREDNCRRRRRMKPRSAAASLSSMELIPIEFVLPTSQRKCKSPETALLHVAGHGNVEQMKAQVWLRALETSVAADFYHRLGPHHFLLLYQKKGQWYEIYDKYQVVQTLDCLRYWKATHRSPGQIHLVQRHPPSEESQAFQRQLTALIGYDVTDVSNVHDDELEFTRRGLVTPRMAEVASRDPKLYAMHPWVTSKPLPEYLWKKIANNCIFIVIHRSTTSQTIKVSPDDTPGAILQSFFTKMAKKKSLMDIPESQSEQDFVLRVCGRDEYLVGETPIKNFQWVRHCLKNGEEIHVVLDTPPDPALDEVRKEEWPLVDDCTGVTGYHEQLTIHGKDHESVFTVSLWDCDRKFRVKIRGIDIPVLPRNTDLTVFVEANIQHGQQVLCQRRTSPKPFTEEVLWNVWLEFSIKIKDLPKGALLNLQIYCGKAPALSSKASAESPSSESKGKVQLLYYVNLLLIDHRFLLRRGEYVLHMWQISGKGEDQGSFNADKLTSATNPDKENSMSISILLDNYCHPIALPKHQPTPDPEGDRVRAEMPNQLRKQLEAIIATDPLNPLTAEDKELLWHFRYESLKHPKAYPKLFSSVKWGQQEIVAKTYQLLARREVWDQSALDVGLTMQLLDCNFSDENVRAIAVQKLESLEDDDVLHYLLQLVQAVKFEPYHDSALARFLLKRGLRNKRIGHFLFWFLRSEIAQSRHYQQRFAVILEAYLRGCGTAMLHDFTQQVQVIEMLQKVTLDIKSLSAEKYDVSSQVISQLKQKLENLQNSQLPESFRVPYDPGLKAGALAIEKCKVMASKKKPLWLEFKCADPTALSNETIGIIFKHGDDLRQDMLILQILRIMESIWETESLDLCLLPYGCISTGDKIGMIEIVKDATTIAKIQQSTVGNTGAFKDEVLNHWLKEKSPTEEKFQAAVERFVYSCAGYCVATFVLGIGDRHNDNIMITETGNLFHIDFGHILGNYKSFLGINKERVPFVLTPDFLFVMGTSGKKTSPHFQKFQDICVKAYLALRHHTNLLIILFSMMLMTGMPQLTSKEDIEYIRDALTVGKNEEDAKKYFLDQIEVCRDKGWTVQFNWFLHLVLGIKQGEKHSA
Procedure: (§1) 1. In Vitro Test of Enzyme Activity
(§2) The lipokinase reaction was carried out under the conditions of a suitable substrate and ATP, followed by two steps to detect the kinase activity with the ADP-Glo™ kit. The first step was terminating the kinase reaction, wherein the remaining ATP was completely removed and only ADP was left; the second step was adding kinase detection reagents to convert ADP to ATP, accompanied by luciferin/luciferase reaction. Finally, the output value of fluorescence value was converted into kinase activity.
(§3) Experimental materials and equipments:
(§4) 2. Kit: ADP-Glo™ Lipokinase and PIP2:3PS Kit (Promega # V1792)
(§5) The kit contains: 1 mM PIP2:3PS, 10× lipid dilution buffer, 1 M magnesium chloride, 10 mM ATP, 10 mM ADP, ADP-Glo reagent, detection buffer and detection substrate.
(§6) 3. Reaction plate: OptiPlate-384, white and transparent (PerkinElmer #6007299).
(§7) 1. 10× reaction buffer: 500 mM HEPES, pH 7.5, 500 mM NaCl, 9 mM MgCl2; BSA: 10% stock solution, homemade.
(§8) 2. Final test system conditions: 1× reaction system: 50 mM HEPES, 50 mM NaCl, 3 mM MgCl2, 0.01% BSA (freshly prepared on the day of the experiment), 1% DMSO (v/v)+/−compound
(§9) 3. Reaction system: 3 μL mixture of the enzyme and the substrate (1:1)+2 μL ATP/MgCl2 mixture+5 μL ADP-Glo reagent+10 μL detection reagent.
(§10) The detailed experimental procedures are as follows:
(§11) 1. Compound dilution: 50 nL 100×compound/DMSO was transferred to the test well plate with Echo. • For PI3Kα, the compound was diluted three-fold from the highest concentration of 0.111 mM for a total of 10 concentrations. • For PI3Kβ/PI3Kδ/PI3Kγ, the compound was three-fold diluted from the highest concentration of 1.11 mM for a total of 10 concentrations.
(§12) (1) The compound to be tested was prepared and 50 nL of 100 plus compound solution or DMSO was added to the corresponding well plate.
(§13) (2) 3.33 plate reaction buffer was prepared.
(§14) (3) 3.33 solution PIP2:3PS was prepared, PIP2:3PS was thawed for at least 1 minute before use.
(§15) (4) 2.5 mM containing 5.25 mM MgCl2 was prepared.
(§16) (5) 3.33 PI3Kα/PI3Kβ/PI3Kδ/PI3Kγ solution was prepared.
(§17) (6) The lipokinase solution and the PIP2:3PS solution were mixed in a volume ratio of 1:1.
(§18) (7) 3.33: lipokinase buffer and PIP2:3PS solution were mixed in a volume ratio of 1:1.
(§19) (8) 3 μL of buffer solution and PIP2:3PS were added to the first and the second columns of the well plate.
(§20) (9) 3 μL of the mixed solution of the enzyme and PIP2:3PS was added to the wells except the first and the second columns, centrifuged for 10 seconds (1000 rpm) and incubated at 23° C. for 20 minutes.
(§21) (10) 2 μL […] was added and well was shaken.
(§22) (11) The well plate was covered and shaken for about 30 s, then the well plate was incubated at 23° C. for 2 hours.
(§23) (12) 5 μL of ADP-Glo reagent containing 10 mM MgCl2 was added.
(§24) (13) The well plate was centrifuged at 1000 rpm for 10 seconds, and the well plate was then covered, shaken for about 30 seconds, and incubated at 23° C. for 60 minutes.
(§25) (14) 10 μL kinase detection reagent was added.
(§26) (15) The well plate was centrifuged at 1000 rpm for 10 seconds, and then incubated at 23° C. for 60 minutes.
(§27) (16) The fluorescence value was measured on the Envision instrument.

PI3Kα = biological target: T2, PI3Kα (Homo sapiens, UniProt P42336); experiment: In vitro test of enzyme activity (ADP-Glo lipokinase), PI3K alpha; format: biochemical; details: 40 μM ATP, 50 μM PIP2:3PS, 120 min
T2 construct: purchased Millipore 14-602-K
T2 sequence (P42336 whole entry): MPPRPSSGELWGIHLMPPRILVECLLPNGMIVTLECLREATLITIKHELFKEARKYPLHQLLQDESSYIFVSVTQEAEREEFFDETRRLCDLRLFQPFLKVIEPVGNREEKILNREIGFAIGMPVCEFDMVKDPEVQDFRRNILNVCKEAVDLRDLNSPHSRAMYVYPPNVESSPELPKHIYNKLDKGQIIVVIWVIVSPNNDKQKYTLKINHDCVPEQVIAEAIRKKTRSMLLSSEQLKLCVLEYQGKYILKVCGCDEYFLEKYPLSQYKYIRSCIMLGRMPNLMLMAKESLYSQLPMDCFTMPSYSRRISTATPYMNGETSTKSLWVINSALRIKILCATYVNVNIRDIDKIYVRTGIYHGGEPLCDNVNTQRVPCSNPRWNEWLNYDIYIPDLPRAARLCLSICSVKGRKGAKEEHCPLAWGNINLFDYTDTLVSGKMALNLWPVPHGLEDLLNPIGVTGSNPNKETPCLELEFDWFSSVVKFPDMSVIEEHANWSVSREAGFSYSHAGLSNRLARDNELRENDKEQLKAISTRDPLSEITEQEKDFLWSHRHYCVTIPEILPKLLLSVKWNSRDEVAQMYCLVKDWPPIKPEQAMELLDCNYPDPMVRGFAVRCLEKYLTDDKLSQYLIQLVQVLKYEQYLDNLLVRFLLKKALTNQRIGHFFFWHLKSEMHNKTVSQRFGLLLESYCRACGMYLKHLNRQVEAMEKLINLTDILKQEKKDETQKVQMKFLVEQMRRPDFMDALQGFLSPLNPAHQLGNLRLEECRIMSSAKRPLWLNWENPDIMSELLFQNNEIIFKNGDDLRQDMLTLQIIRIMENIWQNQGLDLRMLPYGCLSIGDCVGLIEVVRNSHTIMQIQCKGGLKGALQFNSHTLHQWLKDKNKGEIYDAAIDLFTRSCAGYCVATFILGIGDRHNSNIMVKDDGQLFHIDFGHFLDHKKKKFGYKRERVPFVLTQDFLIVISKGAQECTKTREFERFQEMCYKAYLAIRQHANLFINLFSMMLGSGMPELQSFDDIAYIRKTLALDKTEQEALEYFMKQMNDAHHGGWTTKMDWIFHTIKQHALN
T2 sequence (P27986 whole entry partner): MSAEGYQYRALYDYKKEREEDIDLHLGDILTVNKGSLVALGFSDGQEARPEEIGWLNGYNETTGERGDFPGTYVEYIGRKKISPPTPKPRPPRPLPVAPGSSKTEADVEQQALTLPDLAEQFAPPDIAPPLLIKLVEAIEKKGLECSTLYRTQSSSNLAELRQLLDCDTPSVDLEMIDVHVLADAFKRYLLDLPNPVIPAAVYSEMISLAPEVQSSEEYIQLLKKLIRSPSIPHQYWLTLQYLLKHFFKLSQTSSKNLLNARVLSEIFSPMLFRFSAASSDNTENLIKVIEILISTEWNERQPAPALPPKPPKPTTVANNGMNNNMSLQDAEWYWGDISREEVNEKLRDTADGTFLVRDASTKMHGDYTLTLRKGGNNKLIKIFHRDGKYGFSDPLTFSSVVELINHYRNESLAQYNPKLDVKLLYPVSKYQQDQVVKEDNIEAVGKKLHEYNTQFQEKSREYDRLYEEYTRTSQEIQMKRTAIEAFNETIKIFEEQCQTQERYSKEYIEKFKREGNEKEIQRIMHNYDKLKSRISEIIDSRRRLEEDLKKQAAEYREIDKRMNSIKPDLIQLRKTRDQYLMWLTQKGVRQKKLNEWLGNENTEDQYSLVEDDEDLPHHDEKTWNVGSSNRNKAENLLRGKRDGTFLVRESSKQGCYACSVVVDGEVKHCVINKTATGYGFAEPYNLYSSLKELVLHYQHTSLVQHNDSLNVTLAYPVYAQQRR
Procedure: as §1, §2, §3, §4, §5, §6, §7, §8, §9, §10, §11, §12, §13, §14, §15, §16, §17, §18, §19, §20, §21, §22, §23, §24, §25, §26, §27

PI3Kβ = biological target: T3, PI3Kβ (Homo sapiens, UniProt P42338); experiment: In vitro test of enzyme activity (ADP-Glo lipokinase), PI3K beta; format: biochemical; details: 40 μM ATP, 50 μM PIP2:3PS, 120 min
T3 construct: purchased Promega V1751
T3 sequence (P42338 whole entry): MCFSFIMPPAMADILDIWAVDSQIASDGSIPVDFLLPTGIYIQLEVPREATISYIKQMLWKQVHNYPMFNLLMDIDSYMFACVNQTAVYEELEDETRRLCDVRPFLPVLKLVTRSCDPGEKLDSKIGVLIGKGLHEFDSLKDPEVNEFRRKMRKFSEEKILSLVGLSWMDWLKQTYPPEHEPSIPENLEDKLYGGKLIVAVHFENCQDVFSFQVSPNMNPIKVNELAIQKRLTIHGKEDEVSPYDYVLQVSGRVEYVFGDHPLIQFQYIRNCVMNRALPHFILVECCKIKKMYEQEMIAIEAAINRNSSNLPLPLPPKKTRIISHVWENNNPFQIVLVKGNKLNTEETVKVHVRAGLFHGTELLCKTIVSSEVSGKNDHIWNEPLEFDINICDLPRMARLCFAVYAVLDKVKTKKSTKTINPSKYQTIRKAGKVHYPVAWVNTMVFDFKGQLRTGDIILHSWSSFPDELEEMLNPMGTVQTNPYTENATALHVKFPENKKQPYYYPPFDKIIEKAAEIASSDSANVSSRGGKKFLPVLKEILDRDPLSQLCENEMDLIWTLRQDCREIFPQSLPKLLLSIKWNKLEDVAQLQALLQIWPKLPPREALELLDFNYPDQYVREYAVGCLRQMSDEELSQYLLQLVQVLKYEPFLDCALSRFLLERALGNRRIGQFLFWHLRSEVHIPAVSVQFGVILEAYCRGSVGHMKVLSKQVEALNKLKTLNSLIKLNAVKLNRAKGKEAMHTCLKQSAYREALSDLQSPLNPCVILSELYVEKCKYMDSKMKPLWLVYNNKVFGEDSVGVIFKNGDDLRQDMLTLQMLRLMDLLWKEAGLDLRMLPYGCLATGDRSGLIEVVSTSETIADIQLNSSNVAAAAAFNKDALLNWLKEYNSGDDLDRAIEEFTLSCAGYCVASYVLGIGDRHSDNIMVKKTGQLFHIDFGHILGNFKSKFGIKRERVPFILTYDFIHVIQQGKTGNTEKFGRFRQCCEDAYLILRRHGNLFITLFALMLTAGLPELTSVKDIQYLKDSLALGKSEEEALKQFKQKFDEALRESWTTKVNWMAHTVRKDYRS
T3 sequence (P27986 whole entry partner): as the sequence (P27986 whole entry partner) above
Procedure: as §1, §2, §3, §4, §5, §6, §7, §8, §9, §10, §11, §12, §13, §14, §15, §16, §17, §18, §19, §20, §21, §22, §23, §24, §25, §26, §27

PI3Kδ = biological target: T4, PI3Kδ (Homo sapiens, UniProt O00329); experiment: In vitro test of enzyme activity (ADP-Glo lipokinase), PI3K delta; format: biochemical; details: 40 μM ATP, 50 μM PIP2:3PS, 120 min
T4 construct: purchased Millipore 14-604-K
T4 sequence (O00329 whole entry): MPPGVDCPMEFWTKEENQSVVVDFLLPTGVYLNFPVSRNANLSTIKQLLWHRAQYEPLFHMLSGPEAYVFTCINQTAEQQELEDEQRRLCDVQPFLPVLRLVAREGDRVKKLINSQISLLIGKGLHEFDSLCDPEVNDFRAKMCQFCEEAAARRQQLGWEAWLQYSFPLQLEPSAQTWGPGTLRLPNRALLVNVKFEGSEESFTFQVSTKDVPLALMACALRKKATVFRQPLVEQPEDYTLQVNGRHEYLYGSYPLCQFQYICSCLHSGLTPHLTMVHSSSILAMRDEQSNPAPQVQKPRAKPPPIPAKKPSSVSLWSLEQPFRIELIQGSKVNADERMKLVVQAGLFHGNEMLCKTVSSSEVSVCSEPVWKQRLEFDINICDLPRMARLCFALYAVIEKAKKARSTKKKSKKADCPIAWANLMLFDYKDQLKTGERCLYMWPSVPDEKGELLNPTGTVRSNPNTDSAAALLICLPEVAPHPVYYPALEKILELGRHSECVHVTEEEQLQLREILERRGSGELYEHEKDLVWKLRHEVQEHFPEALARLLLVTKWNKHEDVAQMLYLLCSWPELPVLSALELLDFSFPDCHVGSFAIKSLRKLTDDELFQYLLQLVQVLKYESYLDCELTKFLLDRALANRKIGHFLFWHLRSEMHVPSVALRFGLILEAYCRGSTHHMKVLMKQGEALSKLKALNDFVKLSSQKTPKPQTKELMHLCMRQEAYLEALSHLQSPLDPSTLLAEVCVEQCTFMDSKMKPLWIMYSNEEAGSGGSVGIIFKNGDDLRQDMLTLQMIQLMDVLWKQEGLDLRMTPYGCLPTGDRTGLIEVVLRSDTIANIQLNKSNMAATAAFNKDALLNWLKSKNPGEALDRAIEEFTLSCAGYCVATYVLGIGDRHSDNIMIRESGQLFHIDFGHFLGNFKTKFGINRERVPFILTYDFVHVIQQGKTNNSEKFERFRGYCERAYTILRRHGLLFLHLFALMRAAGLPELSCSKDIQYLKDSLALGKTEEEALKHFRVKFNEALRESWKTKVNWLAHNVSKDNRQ
T4 sequence (P27986 whole entry partner): as the sequence (P27986 whole entry partner) above
Procedure: as §1, §2, §3, §4, §5, §6, §7, §8, §9, §10, §11, §12, §13, §14, §15, §16, §17, §18, §19, §20, §21, §22, §23, §24, §25, §26, §27

[1] = system: phosphorylation of PI3K downstream protein Akt in MCF7 cells; experiment: In vitro test of cells activity: ELISA of Akt phosphorylation in MCF7 cells; format: cell-based; details: 2 h compound, insulin 10 μg/mL stimulation, pAkt ELISA, read-out: MCF7 Cell IC50
Procedure: 2. In vitro test of cells activity
By the method of ELISA, the inhibition level of the test compound on the phosphorylation of PI3K downstream protein Akt in the signaling pathway was determined in MCF7 cells line to reflect the cells activity of the compound.
Cell culture medium: complete cell culture medium (RPMI 1640+10% serum+1% L-glutamine+1% double antibody)
Serum-free medium (without serum, RPMI 1640+1% L-glutamine+1% double antibody)
The detailed procedures areas follows:
(1) MCF7 cells (ATCC® HTB-22™) were inoculated into a 96-well plate at 100 μL of cell complete medium per well (2.5*10^4 cells per well), and the cells were incubated at 37° C. and 5% CO2 for 24 hours.
(2) The complete cell culture medium was replaced with 100 μL of serum-free medium, and incubated for starvation overnight.
(3) The compound was prepared (The initial concentration of the compound is 1 mM, which was subjected to a three-fold dilution in 10 concentrations, and the compound of each concentration was then diluted 100-fold with serum-free medium). 25 μL of the diluted compound was added to the cells orifice plate.
(4) The cells were incubated at 37° C. and 5% CO2 for 2 hours.
(5) The cells in the well plate were stimulated with 10 μg/mL insulin (Sigma # I9278-5 mL), incubated for 30 minutes, and then centrifuged at 1000 rpm for 5 minutes at room temperature.
(6) 250 μL of 1× balanced salt solution (Invitrogen, #14065-056, 4° C., containing 1 mM/L Na3VO4) was added to each well to wash the cells once.
(7) 100 μL of lysis buffer (trimethylolaminomethane hydrochloride, Invitrogen, #15567-1000 ml) was added to each well, shaken at 4° C. for 60 minutes, and then centrifuged at 4000 rpm for 4 minutes.
(8) The following procedures were carried out according to the instructions of ELISA kit (TGR BioSciences # EKT002).

[2] = In vivo DMPK study in mice after a single administration; parameters: species or system female Balb/c mice; details: for Cmax / Oral DNAUC (area under the dose normalization curve): oral
Procedure: Experimental objective: female Balb/c mice were used as the test animals, and the blood concentration of the compound was determined and the pharmacokinetic behavior was evaluated after a single administration.
Experimental operation: 12 healthy adult female Balb/c mice were selected, 6 for intravenous injection group and 6 for oral administration group. The compound to be tested was mixed with an appropriate amount of intravenous injection group vehicle (10% HP-betaCD: 10% solutol=1:1, pH=8), vortex-mixed and sonicated to prepare a 1.0 mg/mL clear solution, followed by filtration for subsequent use; the vehicle in the oral group was 0.5% MC/0.2% Tw80. After the test compound and the vehicle were mixed, it was vortex-mixed and sonicated to prepare a 1.0 mg/mL homogeneous suspension for subsequent use. After an intravenous administration at a dose of 1 mg/kg or an oral administration at the dose of 2 mg/kg and 10 mg/kg, whole blood of the mice was collected for a certain period of time to prepare plasma. The drug concentration was analyzed by LC-MS/MS method, and Phoenix WinNonlin software was used (Pharsight, USA) to calculate the pharmacokinetic parameters.
Cmax: the highest concentration of the drug in the body; F %: oral bioavailability; Oral DNAUC: area under the dose normalization curve; Vd: apparent volume of distribution; Cl: clearance rate; T1/2: half-life.

SMILES | IC50 (PI3Kγ) | IC50 (PI3Kα) | IC50 (PI3Kβ) | IC50 (PI3Kδ) | IC50 ([1]; Homo sapiens, MCF7, 2 h) | IC50 [1] | Cmax ([2]; 2 mpk) | Oral DNAUC (area under the dose normalization curve) ([2]; 2 mpk) | Cmax ([2]; 10 mpk) | Oral DNAUC (area under the dose normalization curve) ([2]; 10 mpk) | Cl (clearance rate) ([2]; intravenous 1 mg/kg) | Intravenous injection T1/2 ([2]; intravenous 1 mg/kg) | Vd (apparent volume of distribution) ([2]; intravenous 1 mg/kg) | F % (oral bioavailability) ([2]; oral 10 mpk vs intravenous 1 mg/kg)
COc1ncc(-c2ccc3ncn(CC(C)C(N)=O)c(=O)c3c2)cc1NS(=O)(=O)c1sc(C)nc1C (single isomer, unassigned) [WX024] | 2.03 nM | 0.29 nM | 19.9 nM | 0.47 nM | – | 71.5 nM | – | – | – | – | – | – | – | –
COc1ncc(-c2ccc3ncn(CC(C)C(N)=O)c(=O)c3c2)cc1NS(=O)(=O)c1sc(C)nc1C (single isomer, unassigned) [WX025] | 1 nM | 0.41 nM | 13.2 nM | 0.47 nM | – | 23.9 nM | – | – | – | – | – | – | – | –
CNC(=O)C(C)Cn1cnc2ccc(-c3cnc(OC)c(NS(=O)(=O)c4ccc(F)cc4)c3)cc2c1=O (single isomer, unassigned) [WX087] | 41.3 nM | 3.35 nM | 355 nM | 30.7 nM | – | 19 nM | – | – | 5 µM | 1372 nM · h/mpk | – | – | – | –
CNC(=O)C(C)Cn1cnc2ccc(-c3cnc(OC)c(NS(=O)(=O)c4ccc(C)cc4C)c3)cc2c1=O (single isomer, unassigned) [WX091] | 97.3 nM | 5.11 nM | 537 nM | 26.2 nM | – | 5.7 nM | – | – | – | – | – | – | – | –
CNC(=O)C(C)Cn1cnc2ccc(-c3cnc(OC)c(NS(=O)(=O)c4cc(C(F)(F)F)cc(C(F)(F)F)c4)c3)cc2c1=O (single isomer, unassigned) [WX103] | 360 nM | 20.8 nM | 2280 nM | 403 nM | – | 13.4 nM | – | – | 18.3 µM | 12262 nM · h/mpk | 1.29 mL/min/kg | 3.55 h | 0.324 L/kg | 58.4%

Now from value to molecule:

IC50 (PI3Kγ) | IC50 (PI3Kα) | IC50 (PI3Kβ) | IC50 (PI3Kδ) | IC50 ([1]; Homo sapiens, MCF7, 2 h) | IC50 [1] | Cmax ([2]; 2 mpk) | Oral DNAUC (area under the dose normalization curve) ([2]; 2 mpk) | Cmax ([2]; 10 mpk) | Oral DNAUC (area under the dose normalization curve) ([2]; 10 mpk) | Cl (clearance rate) ([2]; intravenous 1 mg/kg) | Intravenous injection T1/2 ([2]; intravenous 1 mg/kg) | Vd (apparent volume of distribution) ([2]; intravenous 1 mg/kg) | F % (oral bioavailability) ([2]; oral 10 mpk vs intravenous 1 mg/kg) | SMILES
5.29 nM | 7.16 nM | 426 nM | 85 nM | 318 nM | – | – | – | – | – | – | – | – | – | COc1ncc(-c2ccc3ncn(CC(C)C(=O)O)c(=O)c3c2)cc1NS(=O)(=O)c1ccc(F)cc1Cl (single isomer, unassigned) [R003, reference compound]
45.2 nM | 4.9 nM | 1120 nM | 29.7 nM | – | 72 nM | – | – | – | – | – | – | – | – | COCCNC(=O)C(C)Cn1cnc2ccc(-c3cnc(OC)c(NS(=O)(=O)c4ccc(F)cc4Cl)c3)cc2c1=O (single isomer, unassigned) [WX065]
18.3 nM | 2.47 nM | 399 nM | 18.8 nM | – | 67.4 nM | 3.39 µM | 1047 nM · h/mpk | – | – | – | – | – | – | COc1ncc(-c2ccc3ncn(CC(C)C(=O)NCCF)c(=O)c3c2)cc1NS(=O)(=O)c1ccc(F)cc1Cl (single isomer, unassigned) [WX067]
